Test [1] deals with NaIO3-induced ARPE-19 cells. Nature of the test: CCK-8 cell viability in NaIO3-induced ARPE-19 cells. Particulars: NaIO3 10 mM, 24 h, FBP 100, 300, 500, 700, 900 μM, three independent experiments, Figure S2. The test is classed as cell-based, human. Here is the method:
All experiments were performed using cells within specified passages.
Figure S2. Concentration -dependent cel l viability in NaI O3-indu ced ARPE-19 cells. Cell viability under concentration-dependent conditions wa s evaluated in NaIO3-induced ARPE- 19 cells. The data are presented as the mean ± SD from three independent experiments. ***P<0.001, and ns indicates not significa nt.

Another test has as its system Fas. Nature of the test: RT-PCR of Fas expression in NaIO3-treated ARPE-19 cells. As to conditions: ARPE-19, NaIO3 10 mM + peptide 700 μM, 24 h; N=3; Figure 1A. The test is classed as cell-based, human. The method, then: (§1) After 24 h of treatment with NaIO3 (10 mM) and the FBP peptide (700 μM), the cells were harvested for analysis. Total RNA from the ARPE-19 cells was extracted using the RNAiso kit (Takara, Kyoto, Japan). Total RNA was reverse-transcribed into cDNA using the High-Capacity cDNA Reverse Transcription Kit (Applied Biosystems, Waltham, MA, USA). The quantification of gene expression was performed using PowerUp™ SYBR™ Green Master Mix (Thermo Fisher Scientific, Waltham, MA, USA) on an ABI 7500 Fast Real-Time PCR system (Applied Biosystems, Waltham, MA, USA). The sequences of primer pairs used for real-time PCR are depicted in Table 2.

In the next test the test system is ARPE-19 cells. Briefly: Annexin V/PI flow cytometry apoptosis analysis in NaIO3-treated ARPE-19 cells. As to conditions: ARPE-19, NaIO3 10 mM + peptide 700 μM, 24 h; N=3; Figure 1B. The test is classed as cell-based, human. Here is the method: The efficacy of FBP on the inhibition of ARPE-19 cell apoptosis was assessed through annexin V/propidium iodide (PI) staining, followed by flow cytometry analysis. […] After 24 h of treatment with NaIO3 (10 mM) and the FBP peptide (700 μM), the cells were harvested and stained using the Dead Cell Apoptosis Kits with annexin V for Flow Cytometry (Invitrogen, Carlsbad, CA, USA), following the manufacturer’s protocol. The stained cells were collected and analyzed using a BD FACSCalibur™ system (Becton Dickinson, Franklin Lakes, NJ, USA).
(In general: Flow cytometry measures light scatter and fluorescence of single cells or particles in a stream.)

In another test the test system is cleaved caspase-3 and 8. Briefly: Western blot of apoptosis-related proteins in NaIO3-treated ARPE-19 cells. The test is classed as cell-based, human. Particulars: ARPE-19, NaIO3-treated; Figure 1C. The method, then: Total protein samples were extracted from ARPE-19 cells using ice-cold RIPA buffer containing a protease inhibitor cocktail. A 4× sample buffer containing Tris-(2-Carboxyethyl)phosphine (Invitrogen, Carlsbad, CA, USA) was prepared by mixing 950 µL of 4× Laemmli sample buffer (GenDEPOT) with 50 µL of Tris-(2-Carboxyethyl)phosphine (Invitrogen). Protein samples (15 μg) were diluted in the sample buffer and heated at 95 °C for 5 min. The samples were then loaded onto a 12% SDS-PAGE gel and transferred onto a PVDF transfer membrane. The blots were probed with rabbit anti-cleaved caspase-3 (1:1000, Abcam, Cambridge, UK, ab52293), anti-cleaved caspase-8 (1:1000, Abcam, ab25901) and rabbit polyclonal anti-Fas (1:1000, Abcam, ab82419). Secondary polyclonal antibodies were probed with rabbit IgG coupled to HRP (1:2000, Abcam, ab97051). Finally, the blots were developed using ECL Western blotting substrate (Promega, Madison, WI, USA).
(In western blotting, separated proteins are transferred to a membrane and probed.)

In the next test the test system is NF-κB, ERK, and JNK. Briefly: RT-PCR of cytokine and signaling pathway-related genes in NaIO3-treated ARPE-19 cells. The test is classed as cell-based, human. Particulars: ARPE-19, NaIO3 10 mM + FBP 700 μM, 24 h; Figure 1D. Here is the method:
as §1

For test [2], the system named is NaIO3-induced retinal degeneration mice. Briefly: H&E histology in NaIO3-induced retinal degeneration mouse model. The test is classed as in vivo, BALB/c mice. As to conditions: NaIO3 30 mg/kg i.v., N=3, Figure 3B. Here is the method: (§2) To confirm the therapeutic effect of 6R-FBP, histological evaluation was conducted through hematoxylin and eosin (H&E) staining and the TUNEL assay. The eyes were fixed with 4% paraformaldehyde in PBS at room temperature for 20 min. After fixation, the eyes were sequentially incubated in 10%, 20%, and 30% (w/v) sucrose solution diluted in PBS for 30 min each at room temperature. Subsequently, the eyeballs were sagittally halved with a razor blade and embedded in Tissue-Tek® OCT Compound, and then frozen immediately in a liquid nitrogen chamber. Trimming was minimized to maintain controlled distances and ensure consistency, and sections were sliced at a thickness of 10 μm. Sections from the eye cryoblock were used for H&E staining and the TUNEL assay. The TUNEL assay was conducted according to the manufacturer’s protocol using the TUNEL assay kit (Abcam).

Test [3] shares this test system. Nature of the test: TUNEL assay in NaIO3-induced retinal degeneration mouse model. The test is classed as in vivo, BALB/c mice. As to conditions: N=3, Figure 3C. The method, then: as §2
The test system is the same in test [4]. Briefly: In vivo real-time PCR of eye posterior hemisphere in NaIO3-induced retinal degeneration mouse model. The arrangement: species or system BALB/c mice. Particulars: intravitreal injection, N=3, Figure 3D. An excerpt: The mouse eye posterior hemisphere was dissected using Vannas scissors. Subsequently, total RNA was extracted from the posterior hemisphere of the left eye using the RNAiso kit (Takara). RNA was reverse-transcribed with the High-Capacity cDNA Reverse Transcription Kit (Applied Biosystems, Waltham, MA, USA) and quantified using PowerUp™ SYBR™ Green Master Mix (Thermo Fisher Scientific, Waltham, MA, USA) on an ABI 7500 Fast Real-Time PCR system (Applied Biosystems, Waltham, MA, USA). Relative expression was determined using the ΔΔCt method, normalized against GAPDH mRNA levels. The primer sequences used are depicted in Table 2.

The subject of the next test is Fas/FasL. As to conditions: neuronal cells; previous study; cited from earlier work.

YCDEHFCY [FBP]: the “FBP concentration at which viability of NaIO3-induced ARPE-19 cells was maximum” value in [1] is “exceeding 700 μM”. The “expression of Fas (RT-PCR)” value in the test with Fas is recorded as “reduced”. Also, in the test with ARPE-19 cells, the “apoptosis (annexin V/PI staining) compared with mock group” value is “statistically significant decrease in apoptosis”. Besides, in the test with cleaved caspase-3 and 8, the “levels of cleaved caspase-3 and 8 (Western blot)” value is reported as “significant decrease”. For the same sequence, the “levels of NF-κB, ERK, and JNK (RT-PCR)” value in the test on NF-κB, ERK, and JNK is reported as “decreased levels”. The “therapeutic effect on integrity of the retinal layer (H&E staining)” value was “no therapeutic effect” in test [2] (eye drop application, peptides 10 mg/mL (50 μg/5 μL)) and “therapeutic effects” in [2] (intravitreal injection 1 mg/mL (1 μg/1 μL)). Also, the “apoptosis levels in retina (TUNEL)” value is “higher apoptosis levels” in test [3] (eye drop application) and “lower apoptosis levels” in test [3] (intravitreal injection). Further, the “levels of M2 macrophages compared to the mock group (qPCR, CD206)” value in test [4] is “increased levels”. In test [4] (posterior hemisphere), the “expression of Fas receptor, inflammatory cytokines, and macrophages compared to the mock group (qPCR)” value is “decreased expression”. Moreover, the “inhibition of Fas/FasL ligation” value with Fas/FasL was “effective inhibition of Fas/FasL ligation”.

The record behind these values is publication PMC10969560, “Eye Drop with Fas-Blocking Peptide Attenuates Age-Related Macular Degeneration” (Cells, 2024).
